Data from patent US6232340A, “Vanadium complexes and derivatives thereof and methods related thereto” (priority 1998, dated 2001).
“Also recorded” adds a separate entry of the source.

Tests used:
[1] = test system: Collagen Induced Arthritis; assay: Treatment of collagen induced arthritis (CIA) with BMOV and NAC; type: in vivo, rats
Experimental: CIA in rats is a model of chronic inflammatory synovitis with pannus formation, neovascularization, and joint destruction similar to rheumatoid arthritis (RA). After immunization with native collagen type II (CII) in incomplete Freund's adjuvant, 90-100% of genetically susceptible rats reliably develop clinical arthritis within 10 to 14 days.
Arthritis is induced in syngeneic 8 week old female Louvain (LOU) rats by intradermal immunization under ether anaesthesia on Day 0 with 0.5 mg native chick collagen II (CII) (Genzyme, Boston, Mass.) solubilized in 0.1M acetic acid and emulsified in incomplete Freund's adjuvant (IFA) (Difco, Detr, Mich.) (D. E. Trentham et al., J. Exp. Med. 146:857-868, 1977). Onset of clinical arthritis typically develops in 90-100% of control rats 10-12 days post CII immunization.
On day 10 post immunization, arthritis-induced rats are randomized into two groups. Control rats (n=10) receive only an aqueous vehicle at a dose of 100 mg/kg/day s.c. The experimental group (n=10) receives an aqueous vehicle at 100 mg/kg/day s.c., as well as O[BEOV]2 subcutaneously at the appropriate dose.
The severity of clinical arthritis in each limb is scored daily based on an objective integer scale of 0-4 (D. E. Trentham et al., J. Exp. Med. 146:857-868, 1977). A score of 0 indicates an unaffected limb, while a score of 4 represents fulminant erythema and edema involving distal digits. The arthritic index is defined as the sum of its four limb scores. Since CIA typically involves only the hind limbs, an arthritic index of 6 to 8 is considered to represent severe arthritis.
At the end of the study (Day 18-post arthritis onset), hind limb radiographs are obtained. An investigator blinded to the treatment protocol assigns a score to each limb, based on the degree of soft tissue swelling, joint space narrowing, periosteal new bone information, and the presence of erosions and ankylosis (0=normal; 3=maximal joint destruction). The radiographic index is defined as the sum of the limbs.
The humoral immunity is evaluated by collecting rat serum on Day 18 post arthritis onset for measuring anti-CII IgG by an enzyme linked immunosorbent assay (ELISA) (E. Brahn and D. E. Trentham, Cell Immunol. 86:421-428, 1984; E. Brahn and D. E. Trentham, Cell Immunol. 118:491-503, 1989). Antibody titers are normalized against a previously standardised curve and absorbance read at 490 nm at a serum dilution of 1:2500.
Synovium is selected from rats on Day 5 and Day 18-post arthritis onset to study joint morphology using electron microscopy. On Day 18-post arthritis onset, one ankle joint of each arthritic control and O[BEOV]2 -treated rat is removed, critical point dried, and gold sputter-coated for scanning electron microscopy to examine the trochlear surfaces. Conventional transmission electron microscopy is also performed on the articular cartilage of the trochlear surfaces of native, arthritic control, and O[BEOV]2 -treated animals.

collagenase = assay: Northern blot, synovial collagenase expression in CIA rats; type: in vivo; settings: vs control group
Source text: (§1) Collagenase, stromelysin, and IL-1 mRNA were readily detected in the vehicle control group. When normalized for RNA loading, expression of all three genes was decreased in the animals in the BMOV-treated group compared to the control group.

stromelysin = assay: Northern blot, synovial stromelysin expression in CIA rats; type: in vivo; settings: vs control group
Source text: as §1

IL-1 = assay: Northern blot, synovial IL-1 expression in CIA rats; type: in vivo; settings: vs control group
Source text: as §1

[2] = test system: H460 (human non-small cell lung cancer); assay: Efficacy on H460 human non-small cell lung cancer xenograft in SCID-RAG-2 mice (Example 37); type: in vivo, human tumor cells in SCID-RAG-2 female mice; settings: for tumor size reduction (caliper volumes) / reduction of tumor weight relative to control: 500 μg/dose s.c. b.i.d., 9 days; for tumor size reduction (caliper volumes): vs control; for reduction of tumor weight relative to control: day 10
Experimental: A study was undertaken to confirm the efficacy of OHBEOV and O[BEOV]2 using SCID-RAG-2 female mice with implanted human H460 tumors (lung cancer). […] The protocol used was as follows. 15 SKID-RAG-2 mice were randomly divided into 3 groups. Groups were treated as follows. […] Vehicle (isotonic phosphate buffer) was filtered through 0.22 pm sterile filter (Costar 140666).
(§2) The groups were as follows:
(§3) 1) Vehicle control: isotonic phosphate buffer. 300 μl/dose, total of 600 μl/day.
(§4) Treatment continued for a total of nine days. Mice were terminated on day 10 with carbon dioxide. Tumors were removed and weighed following blotting.

[3] = Maximum Tolerated Dose study, s.c. b.i.d. for nine days in DBA-2 mice (Example 33); type: in vivo, female mice (DBA-2)
Experimental: A Maximum Tolerated Dose (M.T.D.) study was undertaken to determine a safe tolerable dose for administration of OHBEOV through a parenteral (s.c.) route of administration delivered twice daily (b.i.d.) for nine days in female mice (DBA-2). The protocol was as follows. 14 DBA-2 mice were randomly divided into groups of 2 for a total of 7 groups. Groups were treated as follows. Vehicle (sterile isotonic phosphate buffer, pH 7.2) was filtered through 0.22 pm sterile filter (Costar 140666). OHBEOV was dissolved with gentle heating and stirring for about 20 min.
(§5) 1) Vehicle control: 300 μl/dose for a total of 600 μl/day.
7) 300 μl of 2 mg/mL OHBEOV to be injected for a total of 1200 μg/day.
Mice were weighed as a group (N=2) prior to injection in the morning. […] Treatment continued for a total of nine days. Groups were observed and weighed daily for 2 weeks following the final treatment and observed for behavioral signs of toxicity i.e. reduced preening, and mobility and organ failure, i.e., weight loss, death. Following this period, mice were terminated with carbon dioxide. Liver, spleen and kidney (and other organs) were weighed and kept for histology if appearance appeared abnormal.

[4] = Maximum Tolerated Dose study, i.v. b.i.d. for nine days in DBA-2 mice (Example 34); type: in vivo, female mice (DBA-2)
Experimental: A Maximum Tolerated Dose (M.T.D.) study was undertaken to determine a safe tolerable dose for administration of OHBEOV through an intravenous route of administration delivered twice daily for nine days in female mice (DBA-2). The protocol was as follows. 8 DBA-2 female mice were randomly divided into groups of 2 for a total of 4 groups. Groups were treated as follows. Vehicle (sterile isotonic phosphate buffer, pH 7.2) was filtered through 0.22 μm sterile filter (Costar 140666).
as §5
Mice were weighed as a group (N=2) prior to injection in the morning. […] Treatment continued for a total of nine days. Groups were observed and weighed daily for 2 weeks following the final treatment and observed for behavioral signs of toxicity, i.e., reduced preening, and mobility and organ failure, i.e., weight loss, death. Following this period, mice were terminated with carbon dioxide. Liver, spleen and kidney (and other organs) weighed and kept for histology if appearance appeared abnormal.

[5] = Plasma glucose levels following acute and b.i.d. dosing (insulin mimetic effect); type: in vivo
MDAY-D2 tumors = assay: Tumor efficacy on MDAY-D2 tumors in DBA-2 mice (Example 36); type: in vivo, murine tumor cells in DBA-2 mice
Experimental: The protocol used is as follows. 10 DBA-2 mice were randomly divided into 2 groups. Groups were treated as follows. […] Vehicle (isotonic phosphate buffer) was filtered through 0.22 μm sterile filter (Costar 140666).
as §2, §3, §4

[6] = isotonic phosphate buffered saline
[7] = test system: H460 human non-small cell lung cancer
Experimental: The purpose was to establish safe efficacious levels of s.c., b.i.d. administration of OHBEOV for 9 days. The protocol used is as follows. 20 female Scid/Rag-2 mice were randomly divided into 4 groups. Groups were treated as follows. H460 tumor cells were inoculated (50 μl 10^6 cells bilaterally in the posterior dorsal region) as discussed earlier. On day 11 following tumor inoculation, the 9 day treatment began. Vehicle (isotonic phosphate buffer) filtered through 0.22 μm sterile filter (Costar 14066).
Mice were weighed as a group prior to injection in the morning. Injections were s.c. in the neck region distal to the tumor sight and were delivered b.i.d. between 8-9 a.m. and between 4-5 p.m. Tumor volumes were estimated on a daily basis from measurements taken with calipers.

synoviocytes = settings: previously shown; cited from earlier work
[8] = test system: drug resistant cell lines; settings: previous studies; cited from earlier work
non-proliferating cells = settings: previous studies; cited from earlier work
proliferating cells = settings: previous studies; cited from earlier work
[9] = xenograft model of human lung cancer

Molecule: Cc1occc(=O)c1[O-].Cc1occc(=O)c1[O-].[O]=[V+2] [BMOV, Bis(maltolato)oxovanadium(IV)]
- diarrhoea ([1]; 10 mg/kg/day): not observed
- diarrhoea ([1]; 15 mg/kg/day on Day 11 post arthritis onset): minor diarrhoea
- cartilage damage (scanning and transmission electron micrographs) ([1]; joints vs control): little cartilage damage and intact cartilage
- trochlear surface of articular cartilage ([1]; vs control rats): normal trochlear surface
- articular cartilage ultrastructure (transmission electron micrographs) ([1]; vs native animal): indistinguishable from the native animal
- inhibition of collagenase gene expression (collagenase; normalized for RNA loading): 78%
- synovial expression of collagenase (collagenase): reduced
- inhibition of stromelysin gene expression (stromelysin; normalized for RNA loading): 58%
- synovial expression of stromelysin (stromelysin): reduced
- inhibition of IL-1 gene expression (IL-1; printed "IL-In", normalized for RNA loading): 85%
- synovial expression of IL-1 (IL-1): to a lesser degree, IL-1, were reduced

Molecule: μ-Oxobis[bis(2-ethyl-3-hydroxy-4-pyronato)oxovanadium(V)] [O[BEOV]2]
- tumor size reduction (caliper volumes) [2]: significant reduction in tumor size
- reduction of tumor weight relative to control [2]: approximately 70%

Molecule: CCc1occc(=O)c1[O][V](=[O])([OH])[O]c1c(CC)occc1=O [OHBEOV, Bis(2-ethyl-3-hydroxy-4-pyronato)hydroxyoxovanadium(V)]
- spleen appearance upon necropsy ([3]; 600 μg/dose s.c., visual inspection): enlarged
- maximum tolerated dose ([3]; b.i.d., s.c. for 9 days): 500 µg/day
- weight loss ([3]; doses up to and including 500 μg (1000 μg/day) s.c., 9 day treatment and 14 day follow up): less than 15%
- weight loss of one animal terminated ([3]; maximum dose of 600 μg s.c.): 25%
- tolerability (doses up to and including) ([3]; per dose, s.c. b.i.d., 9 days, well tolerated): 500 µg
- weight recovery following termination of treatment ([3]; s.c.): all animals regained their original weight
- skin lesions at the injection site ([3]; s.c., higher doses): some skin lesions were noted
- weight loss ([3]; treatment protocol and dose level used to demonstrate tumor efficacy): less than 15%
- weight loss ([4]; doses up to and including 300 μg (600 μg/day) i.v., 9 day treatment and 14 day follow up): less than 15%
- weight recovery following termination of treatment ([4]; i.v.): all animals regained their original weight
- tolerability (doses up to and including) ([4]; per dose, i.v. b.i.d., 9 days, well tolerated): 300 µg
- plasma glucose levels following dosing ([5]; acute and b.i.d. dosing): decreased following dosing
- plasma glucose level (normoglycemic range) ([5]; following dosing, non-diabetic animals): 4 mM
- time for plasma glucose to return to pre-dosing levels ([5]; single and multiple b.i.d. dosing): ≤ 1 h
- tumor size reduction (caliper volumes) (MDAY-D2 tumors; 500 μg/dose s.c. b.i.d., 9 days, vs control): significant reduction in tumor size
- reduction of tumor weight relative to control (MDAY-D2 tumors; 500 μg/dose s.c. b.i.d., 9 days, day 10): approximately 70%
- tumor efficacy (MDAY-D2 tumors; murine solid tumor model at maximum tolerated dose, s.c. b.i.d. 9 days): significant tumor efficacy was demonstrated
- tumor size reduction (caliper volumes) [2]: significant reduction in tumor size
- reduction of tumor weight relative to control [2]: approximately 70%
- tumor efficacy ([2]; human lung cancer xenograft at maximum tolerated dose, s.c. b.i.d. 9 days): significant tumor efficacy was demonstrated
- maximum solubility [6]: 6000 µg/mL
- dose-response of mean tumor weight ([7]; 600-1000 μg/day s.c., day 10): dose-response relationship
- correlation of tumor vanadium with tumor size and dose ([7]; atomic absorption spectroscopy, end of study): strongly correlated
- myelosuppression ([7]; in vivo): no evidence of myelosuppression
- plasma leukocyte count / immune response ([7]; in vivo): no significant changes in plasma leukocyte count
- anti-tumor activity [7, 9]: significant dose-dependent anti-tumor activity
- final tumor size reduction [7, 9]: approximately 70%

Molecule: O=S(=O)([O-])[O-].[O]=[V+2] [vanadyl sulphate]
- cytotoxicity to synoviocytes (synoviocytes): cytotoxic to the cells
- synoviocyte proliferation (synoviocytes): inhibited synoviocyte proliferation

Molecule: [O]=[V]([O-])([O-])[O-] [orthovanadate]
- toxicity to drug resistant cell lines [8]: equally toxic to all the drug resistant cell lines
- effect on non-proliferating cells (non-proliferating cells): did not affect the non-proliferating cells
- effect on proliferating cells (proliferating cells): toxic to proliferating cells
- cytotoxicity to synoviocytes (synoviocytes): cytotoxic to the cells
- synoviocyte proliferation (synoviocytes): inhibited synoviocyte proliferation

Molecule: CC(=O)N[C@@H](CS)C(=O)O [NAC]
- arthritis severity ([1]; NAC alone): developed severe arthritis; also recorded: no appreciable effect on the clinical severity of CIA
